Measurements published in the supplement of paper PMC13380429.

Assays:
Caco-2 [1] = assay: cell viability relative to DMSO; higher = less toxic; conditions: 72 h
Calu-3 [2] = assay: as above; conditions: 72 h
HepG2 [3] = assay: as above; conditions: 72 h
Vero E6 [4] = assay: as above; conditions: 72 h
[5] = system: A549-ACE2 infected with SARS-CoV-2; assay: cell count relative to DMSO; higher = less toxic; conditions: 24 h
Caco-2 [6] = assay: relative viability EC50 (midpoint between 100% and the lowest measured viability); higher = less toxic; conditions: 72 h
Calu-3 [7] = assay: as above; conditions: 72 h
Vero E6 [8] = assay: as above; conditions: 72 h
[9] = system: A549-ACE2 infected with SARS-CoV-2; assay: morphology score (similarity to uninfected cells); higher = more like uninfected cells; conditions: 24 h
A549-ACE2 [10] = assay: phospholipidosis EC50; higher = less potent phospholipidosis inducer
A549-ACE2 [11] = assay: drug-induced phospholipidosis relative to tamoxifen; higher = more phospholipidosis
[12] = system: A549-ACE2 infected with SARS-CoV-2; assay: SARS-CoV-2 infection rate relative to DMSO; higher = more infection; conditions: 24 h
Caco-2 [13] = assay: drug sensitivity score (DSS) for viability; higher = more toxic; extreme values may be limits of the assay; conditions: 72 h
Calu-3 [14] = assay: as above; conditions: 72 h
HepG2 [15] = assay: as above; conditions: 72 h
Vero E6 [16] = assay: as above; conditions: 72 h

Nc1ccc(C(=O)Nc2cccc(-c3nc(N4CCOCC4)c4oc5ncccc5c4n3)c2)cn1
Conditions	SARS-CoV-2 infection rate [%]	cell count [%]	cell viability [%]	morphology score	phospholipidosis EC50 [µM]
A549-ACE2 [10], 24 h	–	–	–	–	6.01
A549-ACE2 [10], 48 h	–	–	–	–	7.56
A549-ACE2 [10], 72 h	–	–	–	–	4.36
Caco-2 [1], 1 nM	–	–	95.4	–	–
Caco-2 [1], 10 nM	–	–	97	–	–
Caco-2 [1], 100 nM	–	–	101	–	–
Caco-2 [1], 1000 nM	–	–	87.1	–	–
Caco-2 [1], 10000 nM	–	–	80	–	–
Calu-3 [2], 1 nM	–	–	101	–	–
Calu-3 [2], 10 nM	–	–	96.1	–	–
Calu-3 [2], 100 nM	–	–	100	–	–
Calu-3 [2], 1000 nM	–	–	96.5	–	–
Calu-3 [2], 10000 nM	–	–	94.8	–	–
HepG2 [3], 1 nM	–	–	109	–	–
HepG2 [3], 10 nM	–	–	99.6	–	–
HepG2 [3], 100 nM	–	–	88.3	–	–
HepG2 [3], 1000 nM	–	–	50.5	–	–
HepG2 [3], 10000 nM	–	–	61.6	–	–
Vero E6 [4], 1 nM	–	–	99.9	–	–
Vero E6 [4], 10 nM	–	–	100	–	–
Vero E6 [4], 100 nM	–	–	96.4	–	–
Vero E6 [4], 1000 nM	–	–	95.9	–	–
Vero E6 [4], 10000 nM	–	–	91.9	–	–
[5], 0.3 µM	–	100	–	–	–
[5], 3 µM	–	102	–	–	–
[5], 10 µM	–	101	–	–	–
[5], 30 µM	–	78	–	–	–
[9], 0.3 µM	–	–	–	0.31	–
[9], 3 µM	–	–	–	0.45	–
[9], 10 µM	–	–	–	0.08	–
[9], 30 µM	–	–	–	-0.12	–
[12], 0.3 µM	90	–	–	–	–
[12], 3 µM	47	–	–	–	–
[12], 10 µM	63	–	–	–	–
[12], 30 µM	110	–	–	–	–

Conditions	drug sensitivity score	relative viability EC50 [µM]
Caco-2 [6]	–	> 10
Caco-2 [13]	1.8	–
Calu-3 [7]	–	> 10
Calu-3 [14]	0	–
HepG2 [15]	10.9	–
Vero E6 [8]	–	> 10
Vero E6 [16]	0	–

drug-induced phospholipidosis [%], A549-ACE2 [11]
Conditions	0.3 µM	0.833333 µM	3.33333 µM	6.66667 µM	10 µM	30 µM
24 h	4.2	16.4	72	146	132	202
48 h	8.45	22.8	79.6	121	135	188
72 h	8	24.5	107	162	–	231
